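Grown in 96-well plates, cells were treated for 48 hours with each compound at five concentrations. Insufficient inhibition: endpoint recorded as highest concentration tested. At the GI50, growth is halved. The concentration for full growth arrest is given as TGI.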
Key:
Test in all cases: NCI tumour cell line growth inhibition, 48 h; in the data active means GI50 below about 0.43 µM; inactive means the rest
UO-31 renal = test system: UO-31 renal
786-0 renal = test system: 786-0 renal
OVCAR-5 ovarian = test system: OVCAR-5 ovarian
HCC-2998 colon = test system: HCC-2998 colon
SW-620 colon = test system: SW-620 colon
HOP-92 NSCLC = test system: HOP-92 NSCLC
CAKI-1 renal = test system: CAKI-1 renal
ACHN renal = test system: ACHN renal
HCT-15 colon = test system: HCT-15 colon
UACC-257 melanoma = test system: UACC-257 melanoma
HL-60(TB) leukemia = test system: HL-60(TB) leukemia
SF-295 CNS = test system: SF-295 CNS
OVCAR-3 ovarian = test system: OVCAR-3 ovarian
MCF7 breast = test system: MCF7 breast
DU-145 prostate = test system: DU-145 prostate
KM12 colon = test system: KM12 colon
TK-10 renal = test system: TK-10 renal
COLO 205 colon = test system: COLO 205 colon
NCI-H522 lung = test system: NCI-H522 lung
A498 renal = test system: A498 renal
IGROV1 ovarian = test system: IGROV1 ovarian
HS 578T breast = test system: HS 578T breast
NCI-H460 lung = test system: NCI-H460 lung
MDA-MB-231 breast = test system: MDA-MB-231 breast
SK-MEL-5 melanoma = test system: SK-MEL-5 melanoma
PC-3 prostate = test system: PC-3 prostate
MALME-3M melanoma = test system: MALME-3M melanoma
SF-539 CNS = test system: SF-539 CNS
EKVX NSCLC = test system: EKVX NSCLC
SK-MEL-2 melanoma = test system: SK-MEL-2 melanoma
K-562 leukemia = test system: K-562 leukemia
SNB-19 CNS = test system: SNB-19 CNS
SK-MEL-28 melanoma = test system: SK-MEL-28 melanoma
SF-268 CNS = test system: SF-268 CNS
MOLT-4 leukemia = test system: MOLT-4 leukemia
SN12C renal = test system: SN12C renal
SR leukemia = test system: SR leukemia
T-47D breast = test system: T-47D breast
BT-549 breast = test system: BT-549 breast
MDA-MB-435 = test system: MDA-MB-435
OVCAR-8 ovarian = test system: OVCAR-8 ovarian
OVCAR-4 ovarian = test system: OVCAR-4 ovarian
U251 CNS = test system: U251 CNS
NCI-H23 lung = test system: NCI-H23 lung
A549 NSCLC = test system: A549 NSCLC
HT29 colon = test system: HT29 colon
SNB-75 CNS = test system: SNB-75 CNS
CCRF-CEM leukemia = test system: CCRF-CEM leukemia
HOP-62 NSCLC = test system: HOP-62 NSCLC
LOX IMVI melanoma = test system: LOX IMVI melanoma
M14 melanoma = test system: M14 melanoma
NCI-H226 lung = test system: NCI-H226 lung
HCT-116 colon = test system: HCT-116 colon
SK-OV-3 ovarian = test system: SK-OV-3 ovarian
UACC-62 melanoma = test system: UACC-62 melanoma
RXF 393 renal = test system: RXF 393 renal
RPMI-8226 leukemia = test system: RPMI-8226 leukemia
NCI/ADR-RES ovarian = test system: NCI/ADR-RES ovarian

CN(C)c1ccc(N=Nc2ccc(Br)cn2)c(O)c1
inactive: GI50 (OVCAR-5 ovarian) 1420 nM | GI50 (HCC-2998 colon) 476 nM | GI50 (SW-620 colon) 565 nM | GI50 (HOP-92 NSCLC) 1310 nM | GI50 (CAKI-1 renal) 790 nM | GI50 (UACC-257 melanoma) 2270 nM | GI50 (SF-295 CNS) 635 nM | GI50 (DU-145 prostate) 653 nM | GI50 (KM12 colon) 854 nM | GI50 (TK-10 renal) 681 nM | GI50 (NCI-H522 lung) 983 nM | GI50 (A498 renal) 3210 nM | GI50 (HS 578T breast) 5780 nM | GI50 (MDA-MB-231 breast) 551 nM | GI50 (SK-MEL-5 melanoma) 774 nM | GI50 (PC-3 prostate) 556 nM | GI50 (MALME-3M melanoma) 2650 nM | GI50 (SF-539 CNS) 673 nM | GI50 (SK-MEL-2 melanoma) 5280 nM | GI50 (K-562 leukemia) 471 nM | GI50 (SNB-19 CNS) 641 nM | GI50 (SK-MEL-28 melanoma) 2050 nM | GI50 (SN12C renal) 704 nM | GI50 (T-47D breast) 568 nM | GI50 (BT-549 breast) 737 nM | GI50 (MDA-MB-435) 1930 nM | GI50 (OVCAR-8 ovarian) 549 nM | GI50 (NCI-H23 lung) 1130 nM | GI50 (A549 NSCLC) 682 nM | GI50 (HT29 colon) 603 nM | GI50 (SNB-75 CNS) 1550 nM | GI50 (M14 melanoma) 691 nM | GI50 (NCI-H226 lung) 1080 nM | GI50 (SK-OV-3 ovarian) 774 nM | GI50 (UACC-62 melanoma) 737 nM | GI50 (RXF 393 renal) 620 nM | GI50 (RPMI-8226 leukemia) 528 nM
> 82600 nM: TGI (SNB-75 CNS)
> 31000 nM: TGI (OVCAR-3 ovarian)
7840 nM: TGI (UACC-257 melanoma)
4350 nM: TGI (SK-MEL-5 melanoma)
7060 nM: TGI (RXF 393 renal)
> 34000 nM: TGI (SR leukemia)
2440 nM: TGI (HL-60(TB) leukemia)
> 40000 nM: TGI (HCT-116 colon)
> 46700 nM: TGI (MOLT-4 leukemia)
8800 nM: TGI (SF-539 CNS)
> 73600 nM: TGI (HOP-62 NSCLC)
8350 nM: TGI (UACC-62 melanoma)
4890 nM: TGI (OVCAR-4 ovarian)
66700 nM: TGI (A498 renal)
12500 nM: TGI (NCI/ADR-RES ovarian)
7680 nM: TGI (NCI-H226 lung)
> 34700 nM: TGI (NCI-H460 lung)
active: GI50 (UO-31 renal) 160 nM | GI50 (786-0 renal) 266 nM | GI50 (ACHN renal) 361 nM | GI50 (HCT-15 colon) 171 nM | GI50 (HL-60(TB) leukemia) 260 nM | GI50 (OVCAR-3 ovarian) 320 nM | GI50 (MCF7 breast) 385 nM | GI50 (COLO 205 colon) 373 nM | GI50 (IGROV1 ovarian) 359 nM | GI50 (NCI-H460 lung) 281 nM | GI50 (EKVX NSCLC) 382 nM | GI50 (SF-268 CNS) 404 nM | GI50 (MOLT-4 leukemia) 294 nM | GI50 (SR leukemia) 149 nM | GI50 (OVCAR-4 ovarian) 186 nM | GI50 (U251 CNS) 373 nM | GI50 (CCRF-CEM leukemia) 227 nM | GI50 (HOP-62 NSCLC) 389 nM | GI50 (LOX IMVI melanoma) 294 nM | GI50 (HCT-116 colon) 325 nM | GI50 (NCI/ADR-RES ovarian) 362 nM
> 100000 nM: TGI (UO-31 renal) | TGI (786-0 renal) | TGI (OVCAR-5 ovarian) | TGI (HCC-2998 colon) | TGI (SW-620 colon) | TGI (HOP-92 NSCLC) | TGI (CAKI-1 renal) | TGI (ACHN renal) | TGI (HCT-15 colon) | TGI (SF-295 CNS) | TGI (MCF7 breast) | TGI (DU-145 prostate) | TGI (KM12 colon) | TGI (TK-10 renal) | TGI (IGROV1 ovarian) | TGI (HS 578T breast) | TGI (MDA-MB-231 breast) | TGI (PC-3 prostate) | TGI (MALME-3M melanoma) | TGI (EKVX NSCLC) | TGI (SK-MEL-2 melanoma) | TGI (K-562 leukemia) | TGI (SNB-19 CNS) | TGI (SK-MEL-28 melanoma) | TGI (SF-268 CNS) | TGI (SN12C renal) | TGI (T-47D breast) | TGI (BT-549 breast) | TGI (MDA-MB-435) | TGI (OVCAR-8 ovarian) | TGI (U251 CNS) | TGI (NCI-H23 lung) | TGI (A549 NSCLC) | TGI (HT29 colon) | TGI (SK-OV-3 ovarian) | TGI (RPMI-8226 leukemia)
> 28600 nM: TGI (NCI-H522 lung)
> 32800 nM: TGI (COLO 205 colon)
> 21300 nM: TGI (M14 melanoma)
